In brackets after ≈: the same amount, converted by molar mass. Where a name gives a salt, the structure may show the parent alone. Starred links: 1 amine or outer side, 2 acyl side, 3 side chain; linkers in the order of their positions; H or OH if unused. Positions of bridges follow the written chain, without caps; N, C: chain ends. Non-standard residues stand in square brackets, D forms with d. Residues, ends and D or L forms follow the SMILES beside them. Chains are numbered I, II in the order given. Actinocin(9to1) = Cc1c2oc3c(C)ccc(C(=O)[*:1])c3nc-2c(C(=O)[*:2])c(N)c1=O; NMeV = CN[C@H](C(=O)O)C(C)C; Sar = CNCC(=O)O
Columns and labels:
[1] = system: Saos-2 cells; test: DNA content (Hoechst H 33258) as measure of cell proliferation, Saos-2; assay type: cell-based, human
Experimental: Cells exposed to a single treatment of troglitazone, 5-fluorouracil, and/or cis-platinum for 3 days. […] The phrase “cell proliferation” is used herein interchangeably with “cell growth.” Concentration of cellular DNA was determined using Hoechst dye H 33258 and a Hoefer DyNA Quant fluorometer according to manufacturer's instructions. Results are expressed as μg DNA/well. All experiments were done in triplicate.

[2] = system: Saos-2 cells; test: Lactate dehydrogenase (LDH) activity in media, Saos-2; assay type: cell-based, human
Experimental: Saos-2 cells were purchased from ATCC (Rockville, Md.) and cultured in 10% fetal bovine serum, penicillin/streptomycin, and DMEM media. Cells exposed to a single treatment of troglitazone, 5-fluorouracil, and/or cis-platinum for 3 days. At the end of 3 days media was tested for lactate dehydrogenase (LDH) activity as a measure of cell toxicity and DNA content was determined as a measure of cell proliferation. The phrase “cell proliferation” is used herein interchangeably with “cell growth.”
Media from treated cells was assayed for LDH activity with a colorimetric dye-oxidation method which has been previously described (11). Briefly, the assay mix including lactate, NAD, INT dye and diaphorase in PBS was added to media from the cells and incubated 30 minutes. Red color development is indicative of INT […] to formazan product, giving an indication of LDH activity when measured at 490 nm.

[3] = system: Saos-2 cells; test: [3H]thymidine incorporation, Saos-2; assay type: cell-based, human
Experimental: Saos-2 cells (10,000/well) were seeded into wells of 12-well plates and grown for 4 days until near confluent. […]. [Methyl-^3H]thymidine (1 μCi) and thymidine (3 μM) were then added to each well, and the incubation was continued for another 4 h. Cells were rinsed with ice-cold PBS twice and were treated with ice-cold 10% TCA. The cells were then rinsed twice with PBS and solubilized in 400 μl of solution composed of 0.03% SDS in 0.3 N NaOH. The extracts were neutralized with HCl, and radioactivity incorporated into the cells was quantified by liquid scintillation spectrometry.

[4] = system: p21 mRNA; test: Ribonuclease protection assay, cell cycle regulator mRNA; assay type: cell-based, human; conditions: single treatment 1 μM, 24 hr, normalized to GAPDH
Experimental: To determine whether troglitazone effected any of the cell cycle regulator genes, ribonuclease protection assay (RPA) was performed measuring mRNAs encoding p130, Rb, p107, p53, p57, p27, p21, p19, p18, p16, p14/15 and the housekeeping gene products L32 and GAPDH. […] Cells were lysed and total RNA was isolated. […] Ribonuclease protection assay was performed using kit according to manufacturer instructions (PharMingen, San Diego, Calif.). Conditions that were optimized included using 20 μg of total RNA from Hs578T cells and a 1:200 dilution of RNAse A/T (200 units/ml RNase A and 10,000 units/ml RNase T). […] Results are reported as the ratio of […] signal. All experiments were done in triplicate from different RNA preparations.

[5] = system: PPARγ in UMCR 3 cells; test: PPRE/luciferase reporter, UMCR 3; assay type: cell-based, human; conditions: 10 μM, 24-hour treatment
Experimental: A tandem PPRE luciferase expression plasmid was constructed using three copies of a consensus PPRE 5′ to the luciferase gene. Cells were transfected using the calcium phosphate method of transfection. 10 μg of PPRE/luciferase reporter plasmid was transfected into URMC 3, 6, and 7 cells. A CMV-CAT reporter plasmid was cotransfected (0.5 μg) with PPRE/luciferase as an internal control for transfection efficiency. CAT activity was measured by ELISA as described by Boehringer-Mannheim. […] Cells lysates were prepared and luciferase activity was determined using an AutoLumat luminometer.

[6] = system: CaOV3 cells; test: DNA content, ovarian tumor cells CaOV3; assay type: cell-based, human; conditions: 3 days; for inhibition at 10 µM: Homo sapiens, Caov-3, 72 h, read-out: inhibition of cell proliferation
Experimental: (§1) […]. At the end of 3 days DNA content was determined as a measure of cell proliferation.
(§2) Concentration of cellular DNA was determined using Hoechst dye H 33258 and a Hoefer DyNA Quant fluorometer according to manufacturer's instructions. Results are expressed as μg DNA/well. All experiments were done in triplicate.

[7] = system: 222 cells; test: DNA content, ovarian tumor cells 222; assay type: cell-based; conditions: Homo sapiens, 72 h, 3 days, read-out: inhibition of growth
Experimental: as §1, §2

[8] = system: PA-1 cells; test: DNA content, ovarian tumor cells PA-1; assay type: cell-based; conditions: Homo sapiens, 72 h, 3 days, read-out: inhibition of cell proliferation
Experimental: as §1, §2

[9] = system: three renal cell carcinoma cell lines; test: DNA content, three renal cell carcinoma cell lines taken together; assay type: cell-based, human; conditions: 10 μM; UMCR 3, 6 and 7
Experimental: Human renal tumor cells (URMC 3, 6, 7) were cultured in 5% fetal bovine serum, penicillin/streptomycin, and alpha-MEM media. […] At the end of 3 days DNA content was determined as a measure of cell proliferation.
as §2

[10] = cited from earlier work
[11] = system: multiple myeloma; conditions: oral administration; cited from earlier work
[12] = system: human ovarian 2774 cells; test: DNA content, ovarian 2774 cells, combinatorial therapy; assay type: cell-based; conditions: taxol 1 ng/ml, cis-platin 100 ng/ml, troglitazone 5 or 10 μM, alone or combined
Experimental: as §1, §2

[13] = humans; cited from earlier work
[14] = system: HCT 15 cells; conditions: cited from earlier work
[15] = system: HCT 116 cells; conditions: cited from earlier work

For Cc1c(C)c2c(c(C)c1O)CCC(C)(COc1ccc(CC3SC(=O)NC3=O)cc1)O2 (racemic) [troglitazone, ±5-[[4-[(3,4-dihydro-6-hydroxy-2,5,7,8-tetramethyl-2H-1-benzopyran-2-yl)methoxy]phenyl]methyl]-2,4-thiazolidinedione], the IC50 ([1]; Homo sapiens, 72 h, Saos-2 cells, 3 days after a single treatment, read-out: IC50 (DNA content per well)) was 1 to 10 µg/mL (≈ 2.26 to 22.6 µM), the “ability to inhibit cell proliferation in combinatorial therapy (5-FU, doxorubicin)” value ([1]; compared with the other thiazolidinediones) was “superior to pioglitazone and BRL49653” and the “LDH levels in the media as compared to controls” value ([2]; any concentration used, 3 days of treatment) was “not altered”. The “lethality to Saos-2 cells (LDH activity)” value ([2]; up to 30 μg/ml, 3 days) was “not lethal”, the “decrease in 3H-thymidine incorporation” value ([3]; 10 μg/ml, 24 h exposure) was roughly 45% and the inhibition at 5 µg/mL ([3]; Homo sapiens, SAOS-2, read-out: inhibition of 3H-uridine uptake, 5 μg/ml, 18 hours) was 16%. For the same compound, the inhibition at 10 µg/mL ([3]; Homo sapiens, SAOS-2, read-out: inhibition of 3H-uridine uptake, 10 μg/ml, 18 hours) was 43%, the “increase in p21 mRNA levels” value [4] was 2.6 fold and the “stimulation of PPRE/luciferase transcription” value [5] was 3 fold. The “inhibition of cell proliferation” value ([6]; 10 μM) was “no inhibitory activity”, the inhibition at 10 µM [7] was 50% and the inhibition at 10 µM [8] was 60 to 70%.

With CC1=C(/C=C/C(C)=C\C=C\C(C)=C\C(=O)O)C(C)(C)CCC1 [9-cis-retinoic acid] the “growth inhibitory activity (FIGS. 13-15)” value [9] was “little on no growth inhibitory activity”.

For Cc1c2oc3c(C)ccc(C(=O)N[C@@H]4C(=O)N[C@H](C(C)C)C(=O)N5CCC[C@H]5C(=O)N(C)CC(=O)N(C)[C@@H](C(C)C)C(=O)O[C@@H]4C)c3nc-2c(C(=O)N[C@@H]2C(=O)N[C@H](C(C)C)C(=O)N3CCC[C@H]3C(=O)N(C)CC(=O)N(C)[C@@H](C(C)C)C(=O)O[C@@H]2C)c(N)c1=O [Actinomycin D] (I: T[dV]P[Sar][NMeV] / II: T[dV]P[Sar][NMeV]; ester I:1-I:C, II:1-II:C; linker I:N-II:N via Actinocin(9to1)), the “passage of the blood-brain barrier” value ([10]; in vivo) is given as “does not pass”.

For O=C(O)CCCc1ccc(N(CCCl)CCCl)cc1 [Chlorambucil, 4-[bis(2-chlorethyl)amino] benzenebutanoic acid], the oral absorption ([10]; in vivo) is listed as “rapidly and completely absorbed”.

In the case of O.O=P1(N(CCCl)CCCl)NCCCO1 (stereo not shown) [Cyclophosphamide, 2H-1,3,2-Oxazaphosphorin-2-amine, N,N-bis(2-chloroethyl)tetrahydro-, 2-oxide, monohydrate], the “stability in the gastrointestinal tract” value ([10]; in vivo) is listed as “stable”.

In the case of COc1cccc2c1C(=O)c1c(O)c3c(c(O)c1C2=O)C[C@@](O)(C(C)=O)C[C@@H]3O[C@H]1C[C@H](N)[C@H](O)[C@H](C)O1 [Daunorubicin, 5,12-Naphthacenedione, (8S-cis)-8-acetyl-10-[(3-amino-2,3,6-trideoxy-a-L-lyxo-hexanopyranosyl)oxy]-7,8,9,10-tetrahydro-6,8,11-trihydroxy-10-methoxy-, hydrochloride], the oral absorption ([10]; in vivo) is listed as “poor”.

In the case of COc1cccc2c1C(=O)c1c(O)c3c(c(O)c1C2=O)C[C@@](O)(C(=O)CO)C[C@@H]3O[C@H]1C[C@H](N)[C@H](O)[C@H](C)O1 [Doxorubicin, 5,12-Naphthacenedione, (8s-cis)-10-[(3-amino-2,3,6-trideoxy-a-L-lyxo-hexopyranosyl)oxy]-7,8,9,10-tetrahydro-6,8,11-trihydroxy-8-(hydroxyacetyl)-1-methoxy-hydrochloride], the oral absorption ([10]; in vivo) is given as “absorbed poorly” and the “secreted into the bile” value ([10]; in vivo) is given as “Forty to 50”.

For O=NN(CCCl)C(=O)NC1CCCCC1 [Lomustine, 1-(2-chloro-ethyl)-3-cyclohexyl-1 nitrosourea], the “serum half-life of the metabolites” value ([10]; in vivo) is listed as 16 to 48 h and the “radioactivity excreted as degradation products within 24 hours” value ([10]; oral, 30 mg/m^2 to 100 mg/m^2, radioactive drug) is listed as “about half”.

For N[C@@H](Cc1ccc(N(CCCl)CCCl)cc1)C(=O)O [Melphalan, 4-[bis(2-chloroethyl)amino]-L-phenylalanine], the “patients showing a favorable response” value [11] is given as “one third to one half”.

With Cc1c(C)c2c(c(C)c1OC(=O)CCC(=O)O)CC[C@@](C)(CCC[C@H](C)CCC[C@H](C)CCCC(C)C)O2 [Vitamin E succinate] the “inhibition of cell proliferation, compounds compared (FIG. 7)” value ([1]; single treatment) was “somewhat less effective than troglitazone”.

With CC1=C(/C=C/C(C)=C/C=C/C(C)=C/C(=O)O)C(C)(C)CCC1 [all trans retinoic acids] the “growth inhibitory activity (FIGS. 13-15)” value [9] was “little on no growth inhibitory activity”.

For N.N.[Cl][Pt][Cl] [cis-platin], the “inhibition of cell proliferation” value [12] is given as 55% and the oral absorption ([10]; in vivo) is given as “not absorbed orally”.

In the case of CO[C@@]12[C@H](COC(N)=O)C3=C(C(=O)C(C)=C(N)C3=O)N1C[C@@H]1N[C@@H]12 [mitomycin], the “dose recovered/excreted in the urine” value [13] is given as “Approximately 10%”.

In the case of CCc1ccc(CCOc2ccc(CC3SC(=O)NC3=O)cc2)nc1 (stereo not shown) [pioglitazone], the inhibition at 10 µM [6] is reported as 60%, the inhibition at 10 µM [7] is reported as 36% and the inhibition at 10 µM [8] is reported as 60 to 70%.

In the case of CN(CCOc1ccc(CC2SC(=O)NC2=O)cc1)c1ccccn1 (stereo not shown) [rosiglitazone], the inhibition at 10 µM [6] is reported as 60%, the inhibition at 10 µM [7] is reported as 4% and the inhibition at 10 µM [8] is reported as 60 to 70%.

With O=C(O)CCC(=O)O [succinic acid] the “effect upon cell proliferation” value ([1]; 100 μM) was “no effect”.

CC(=O)O[C@H]1C(=O)[C@@]2(C)[C@H]([C@H](OC(=O)c3ccccc3)[C@]3(O)C[C@H](OC(=O)[C@H](O)[C@@H](NC(=O)c4ccccc4)c4ccccc4)C(C)=C1C3(C)C)[C@]1(OC(C)=O)CO[C@@H]1C[C@@H]2O [taxol] gave an inhibition at 0.001 µg/mL ([12]; Homo sapiens, read-out: inhibition of cell proliferation) of 28%.

For CC[C@]1(O)C[C@@H]2CN(CCc3c([nH]c4ccccc34)[C@@](C(=O)OC)(c3cc4c(cc3OC)N(C)[C@H]3[C@@](O)(C(=O)OC)[C@H](OC(C)=O)[C@]5(CC)C=CCN6CC[C@]43[C@@H]65)C2)C1 [vinblastine], the oral absorption ([10]; in vivo) is given as “Unpredictable absorption”.

In the case of CC[C@]1(O)C[C@H]2CN(CCc3c([nH]c4ccccc34)[C@@](C(=O)OC)(c3cc4c(cc3OC)N(C=O)[C@H]3[C@@](O)(C(=O)OC)[C@H](OC(C)=O)[C@]5(CC)C=CCN6CC[C@]43[C@@H]65)C2)C1 [vincristine], the oral absorption ([10]; in vivo) is given as “Unpredictable absorption”.

For vitamin E, the “cell killing (microscopic examination and LDH levels in the media)” value ([2]; 100 μM) is given as “cells are being killed”, the IC50 [14] is given as 750 µM and the IC50 [15] is given as 3000 µM.

Source: US20040266834A1, “Thiazolidinediones alone or in cabination with other therapeutic agents for cancer therapy” (priority 1999, published 2004)
